How the values were obtained:
Syk = Syk (Homo sapiens (Human), UniProt P43405); assay: Syk enzyme inhibition (FRET, Z-LYTE); type: biochemical
Description: (§1) The enzyme inhibitory activities of compounds disclosed herein are determined by FRET using synthetic peptides labelled with both donor and acceptor fluorophores (Z-LYTE, Invitrogen Ltd., Paisley, UK).
(§2) The inhibitory activities of compounds of the invention against c-Src and Syk enzymes (Invitrogen), are evaluated in a similar fashion to that described hereinabove. The relevant enzyme (3000 ng/mL or 2000 ng/mL respectively, 2.5 μL) is incubated with the test compound (either 4 μg/mL, 0.4 μg/mL, 0.04 μg/mL, or 0.004 μg/mL, 2.5 μL each) for 2 hr at RT. The FRET peptides (8 μM. 2.5 μL), and appropriate ATP solutions (2.5 μL, 800 μM for c-Src, and 60 μM ATP for Syk) are then added to the enzymes/compound mixtures and incubated for 1 hr. Development reagent (protease, 5 μL) is added for 1 hr prior to detection in a fluorescence microplate reader (Varioskan® Flash, ThermoFisher Scientific).
(§3) In all cases, the site-specific protease cleaves non-phosphorylated peptide only and eliminates the FRET signal. Phosphorylation levels of each reaction are calculated using the ratio of coumarin emission (donor) over fluorescein emission (acceptor), for which high ratios indicate high phosphorylation and low ratios indicate low phosphorylation levels. The percentage inhibition of each reaction is calculated relative to non-inhibited control and the 50% inhibitory concentration (IC50 value) is then calculated from the concentration-response curve.

p38 MAPKα = p38 MAPKα (Homo sapiens (Human), UniProt Q16539); assay: p38 MAPKα enzyme inhibition (FRET, Z-LYTE; Method 2); type: biochemical
p38 MAPKα, sequence (Q16539 whole entry): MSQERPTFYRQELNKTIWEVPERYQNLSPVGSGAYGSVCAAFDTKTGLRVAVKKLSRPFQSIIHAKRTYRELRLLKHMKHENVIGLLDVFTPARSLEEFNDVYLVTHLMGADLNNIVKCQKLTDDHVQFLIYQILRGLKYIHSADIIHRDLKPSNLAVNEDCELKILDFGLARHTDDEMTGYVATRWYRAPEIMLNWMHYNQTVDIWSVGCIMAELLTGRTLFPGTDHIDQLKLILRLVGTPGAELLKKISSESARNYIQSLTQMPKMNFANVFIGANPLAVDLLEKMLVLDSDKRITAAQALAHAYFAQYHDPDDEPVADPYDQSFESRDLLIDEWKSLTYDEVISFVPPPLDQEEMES
Description: as §1
The inhibitory activities of test compounds against the p38 MAPKα isoform (MAPK14: Invitrogen), are evaluated indirectly by determining the level of activation/phosphorylation of the down-stream molecule, MAPKAP-K2. The p38 MAPKα protein (80 ng/mL, 2.5 μL) is mixed with the test compound (2.5 μL of either 4 μg/mL, 0.4 μg/mL, 0.04 μg/mL or 0.004 μg/mL) for 2 hr at RT. […] The mixture is incubated for 1 hr at RT. Development reagent (protease, 5 μL) is added for 1 hr prior to detection in a fluorescence microplate reader (Varioskan® Flash, ThermoFisher Scientific).
Method 2 This method follows the same steps as Method 1 above, but utilises a higher concentration of the p38 MAPKα protein (2.5 μL of 200 ng/mL protein instead of 2.5 μL of 80 ng/mL protein) for mixing with the test compound.
as §3

PBMCs = assay: LPS-induced TNFα/IL-8 release in PBMC cells; type: cell-based; settings: Homo sapiens, LPS-stimulated PBMCs, IL-8, read-out: IC50 Values for Inhibition of Cytokine Release, PBMCs IL-8
Description: Peripheral blood mononuclear cells (PBMCs) from healthy subjects are separated from whole blood using a density gradient (Lymphoprep, Axis-Shield Healthcare). The PBMCs are seeded in 96 well plates and treated with compounds at the desired concentration for 2 hours before addition of 1 ng/mL LPS (Escherichia Coli 0111:B4 from Sigma Aldrich) for 24 hours under normal tissue culture conditions (37° C., 5% CO2). The supernatant is harvested for determination of IL-8 and TNFα concentrations by sandwich ELISA (Duo-set, R&D systems) and read on the fluorescence microplate reader (Varioskan® Flash, ThermoFisher Scientific). The concentration at 50% inhibition (IC50) of IL-8 and TNFα production is calculated from the dose response curve.

c-Src = c-Src (Homo sapiens (Human), UniProt P12931); assay: c-Src enzyme inhibition (FRET, Z-LYTE); type: biochemical
c-Src, sequence (P12931 whole entry, looked up): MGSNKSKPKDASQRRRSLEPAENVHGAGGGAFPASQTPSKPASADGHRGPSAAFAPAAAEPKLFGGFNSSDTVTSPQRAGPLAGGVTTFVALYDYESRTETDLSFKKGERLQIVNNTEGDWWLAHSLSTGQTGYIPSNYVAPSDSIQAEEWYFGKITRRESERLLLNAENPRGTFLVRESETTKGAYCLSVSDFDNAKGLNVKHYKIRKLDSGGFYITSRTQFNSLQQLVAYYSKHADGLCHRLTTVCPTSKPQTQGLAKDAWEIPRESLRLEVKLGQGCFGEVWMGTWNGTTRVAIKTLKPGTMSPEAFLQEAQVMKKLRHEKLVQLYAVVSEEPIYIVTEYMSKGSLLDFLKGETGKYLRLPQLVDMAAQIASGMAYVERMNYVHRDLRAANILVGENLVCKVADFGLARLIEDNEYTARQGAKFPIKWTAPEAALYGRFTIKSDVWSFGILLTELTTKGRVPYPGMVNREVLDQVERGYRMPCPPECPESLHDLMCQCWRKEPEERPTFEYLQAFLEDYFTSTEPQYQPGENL
Description: as §1, §2, §3

GSK3α = GSK3α (Homo sapiens (Human), UniProt P49840); assay: GSK 3α enzyme inhibition (FRET, Z-LYTE; Method 2); type: biochemical
GSK3α, sequence (P49840 whole entry): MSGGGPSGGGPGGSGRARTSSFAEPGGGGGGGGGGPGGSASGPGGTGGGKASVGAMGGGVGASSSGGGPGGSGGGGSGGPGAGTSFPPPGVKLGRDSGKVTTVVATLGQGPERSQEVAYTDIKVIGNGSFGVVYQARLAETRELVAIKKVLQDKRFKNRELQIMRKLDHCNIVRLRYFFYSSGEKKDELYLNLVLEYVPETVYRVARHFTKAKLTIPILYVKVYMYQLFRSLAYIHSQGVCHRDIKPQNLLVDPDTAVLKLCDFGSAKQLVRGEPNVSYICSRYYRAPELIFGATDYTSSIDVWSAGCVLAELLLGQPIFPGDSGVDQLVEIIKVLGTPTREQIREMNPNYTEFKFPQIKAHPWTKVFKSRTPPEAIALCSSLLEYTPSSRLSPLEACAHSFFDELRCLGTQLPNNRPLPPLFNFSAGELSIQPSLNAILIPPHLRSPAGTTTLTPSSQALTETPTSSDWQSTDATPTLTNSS
Description: as §1
The inhibitory activities of compounds of the invention against the GSK 3α enzyme isoform (Invitrogen), are evaluated by determining the level of activation/phosphorylation of the target peptide. The GSK3-α protein (500 ng/mL, 2.5 μL) is mixed with the test compound (2.5 μL at either 4 μg/mL, 0.4 μg/mL, 0.04 μg/mL, or 0.004 μg/mL) for 2 hr at RT. The FRET peptide (8 μM, 2.5 μL), which is a phosphorylation target for GSK3α, and ATP (40 μM, 2.5 μL) are then added to the enzyme/compound mixture and the resulting mixture incubated for 1 hr. Development reagent (protease, 5 μL) is added for 1 hr prior to detection in a fluorescence microplate reader (Varioskan® Flash, ThermoFisher Scientific).
as §3
This method follows the same steps as Method 1 above, but utilises a shorter period of mixing of the test compound (105 minutes instead of 2 hours) with the GSK3-α protein.

IC50 (Syk) | IC50 (p38 MAPKα) | IC50 (c-Src) | IC50 (GSK3α) | SMILES | IC50 (PBMCs)
0.002 µM | 0.044 µM | 0.001 µM | 0.761 µM | Cc1cc(Nc2nccc(Oc3ccc(NC(=O)Nc4cc(C(C)(C)C)nn4-c4ccc(P(C)(C)=O)cc4)c4ccccc34)n2)cc2cn[nH]c12 [Example 21, 1-(3-(tert-Butyl)-1-(4-(dimethylphosphoryl)phenyl)-1H-pyrazol-5-yl)-3-(4-((2-((7-methyl-1H-indazol-5-yl)amino)pyrimidin-4-yl)oxy)naphthalen-1-yl)urea] | 0.0034 µM
0.2 µM | 0.067 µM | 0.009 µM | 0.818 µM | CCP(=O)(CC)c1ccc(-n2nc(C(C)(C)C)cc2NC(=O)Nc2ccc(Oc3ccnc(Nc4ccccc4)n3)c3ccccc23)cc1 [Example 22, 1-(3-(tert-Butyl)-1-(4-(diethylphosphoryl)phenyl)-1H-pyrazol-5-yl)-3-(4-((2-(phenylamino)-pyrimidin-4-yl)oxy)naphthalen-1-yl)urea] | 0.0328 µM
0.884 µM | > 1 µM | 0.372 µM | > 10 µM | CC(C)(C)c1cc(NC(=O)Nc2ccc(Oc3ccnc(Nc4ccc(S(F)(F)(F)(F)F)cc4)n3)c3ccccc23)n(-c2ccc(P(C)(C)=O)cc2)n1 [Example 28, 1-(3-(tert-Butyl)-1-(4-(dimethylphosphoryl)phenyl)-1H-pyrazol-5-yl)-3-(4-((2-((4-(Pentafluorothio)phenyl)amino)pyrimidin-4-yl)oxy)naphthalen-1-yl)urea] | 0.214 µM
> 1 µM | 0.149 µM | > 1 µM | > 10 µM | CC(C)(C)c1cc(NC(=O)Nc2ccc(Oc3ccnc(Sc4ccccc4)n3)c3ccccc23)n(-c2ccc(P(C)(C)=O)cc2)n1 [Example 29, 1-(3-(tert-Butyl)-1-(4-(dimethylphosphoryl)phenyl)-1H-pyrazol-5-yl)-3-(4-((2-(phenylthio)-pyrimidin-4-yl)oxy)naphthalen-1-yl)urea] | 0.15 µM
> 1 µM | 0.027 µM | 0.795 µM | > 10 µM | CN(CCCO)c1nccc(Oc2ccc(NC(=O)Nc3cc(C(C)(C)C)nn3-c3ccc(P(C)(C)=O)cc3)c3ccccc23)n1 [Example 30, 1-(3-(tert-Butyl)-1-(4-(dimethylphosphoryl)phenyl)-1H-pyrazol-5-yl)-3-(4-((2-((3-hydroxy-propyl)(methyl)amino)pyrimidin-4-yl)oxy)naphthalen-1-yl)urea] | 0.281 µM
– | – | – | 0.326 µM | CC(C)(C)c1cc(NC(=O)Nc2ccc(Oc3ccnc(Nc4ccc5c(c4)NC(=O)C5)n3)c3ccccc23)n(-c2cccc(CP(C)(C)=O)c2)n1 [Example 33, 1-(3-(tert-Butyl)-1-(3-((dimethylphosphoryl)methyl)phenyl)-1H-pyrazol-5-yl)-3-(4-((2-((2-oxoindolin-6-yl)amino)pyrimidin-4-yl)oxy)naphthalen-1-yl)urea] | 0.0024 µM
– | – | – | 0.324 µM | CC(C)(C)c1cc(NC(=O)Nc2ccc(Oc3ccnc(Nc4cccc(OCCN5CCOCC5)c4)n3)c3ccccc23)n(-c2cccc(CP(C)(C)=O)c2)n1 [Example 34, 1-(3-(tert-Butyl)-1-(3-((dimethylphosphoryl)methyl)phenyl)-1H-pyrazol-5-yl)-3-(4-((2-((3-(2-morpholinoethoxy)phenyl)amino)pyrimidin-4-yl)oxy)naphthalen-1-yl)urea] | 0.0011 µM
– | – | – | 8.92 µM | COc1ccccc1Nc1nccc(Oc2ccc(NC(=O)Nc3cc(C(C)C)nn3-c3cccc(CP(C)(C)=O)c3)c3ccccc23)n1 [Example 40, 1-(1-(3-((dimethylphosphoryl)methyl)phenyl)-3-isopropyl-1H-pyrazol-5-yl)-3-(4-((2-((2-methoxyphenyl)amino)pyrimidin-4-yl)oxy)naphthalen-1-yl)urea] | 0.104 µM
– | – | – | 0.174 µM | C#Cc1cc(Nc2nccc(Oc3ccc(NC(=O)Nc4cc(C(C)C)nn4-c4cccc(CP(C)(C)=O)c4)c4ccccc34)n2)cc(C(=O)NCCN2CCOCC2)c1 [Example 43, 3-((4-((4-(3-(1-(3-((Dimethylphosphoryl)methyl)phenyl)-3-isopropyl-1H-pyrazol-5-yl)ureido)naphthalen-1-yl)oxy)pyrimidin-2-yl)amino)-5-ethynyl-N-(2-morpholinoethyl)benzamide] | 0.0016 µM
– | – | – | 1.59 µM | COc1cc(Nc2nccc(Oc3ccc(NC(=O)Nc4cc(C(C)C)nn4-c4cccc(CP(C)(C)=O)c4)c4ccccc34)n2)cc(S(=O)(=O)C2CC2)c1 [Example 46, 1-(4-((2-((3-(Cyclopropylsulfonyl)-5-methoxyphenyl)amino)pyrimidin-4-yl)oxy)naphthalen-1-yl)-3-(1-(3-((dimethylphosphoryl)methyl)phenyl)-3-isopropyl-1H-pyrazol-5-yl)urea] | 0.0059 µM
– | – | – | 0.406 µM | COc1cc(Nc2nccc(Oc3ccc(NC(=O)Nc4cc(C(C)(C)C)nn4-c4cccc(CP(C)(C)=O)c4)c4ccccc34)n2)cc(C(=O)NCCN2CCOCC2)c1 [Example 47, 3-((4-((4-(3-(3-(tert-Butyl)-1-(3-((dimethylphosphoryl)methyl)phenyl)-1H-pyrazol-5-yl)ureido)naphthalen-1-yl)oxy)pyrimidin-2-yl)amino)-5-methoxy-N-(2-morpholinoethyl)-benzamide] | 0.0008 µM
– | – | – | 0.188 µM | CC(C)c1cc(NC(=O)Nc2ccc(Oc3ccnc(Nc4cc(OCCN5CCOCC5)cc(S(C)(=O)=O)c4)n3)c3ccccc23)n(-c2cccc(CP(C)(C)=O)c2)n1 [Example 53, 1-(1-(3-((Dimethylphosphoryl)methyl)phenyl)-3-isopropyl-1H-pyrazol-5-yl)-3-(4-((2-((3-(methylsulfonyl)-5-(2-morpholinoethoxy)phenyl)amino)pyrimidin-4-yl)oxy)naphthalen-1-yl)urea] | 0.002 µM
– | – | – | > 10 µM | COc1cc(Nc2nccc(Oc3ccc(NC(=O)Nc4cc(C(C)C)nn4-c4cccc(CP(C)(C)=O)c4)c4ncccc34)n2)cc(OCCN2CCOCC2)c1 [Example 54, 1-(1-(3-((Dimethylphosphoryl)methyl)phenyl)-3-isopropyl-1H-pyrazol-5-yl)-3-(5-((2-((3-methoxy-5-(2-morpholinoethoxy)phenyl)amino)pyrimidin-4-yl)oxy)quinolin-8-yl)urea] | 0.0274 µM
– | – | – | 1.67 µM | COCCOCCOCCOCCOCCOc1cc(Nc2nccc(Oc3ccc(NC(=O)Nc4cc(C(C)C)nn4-c4cccc(CP(C)(C)=O)c4)c4ccccc34)n2)cc(OC)c1 [Example 55, 1-(4-((2-((3-(2,5,8,11,14-Pentaoxahexadecan-16-yloxy)-5-methoxyphenyl)amino)-pyrimidin-4-yl)oxy)naphthalen-1-yl)-3-(1-(3-((dimethylphosphoryl)methyl)phenyl)-3-isopropyl-1H-pyrazol-5-yl)urea] | 0.0054 µM
– | – | – | 0.788 µM | C#Cc1cc(Nc2nccc(Oc3ccc(NC(=O)Nc4cc(C(C)C)nn4-c4cccc(CP(C)(C)=O)c4)c4ccccc34)n2)cc(OCCN2CCOCC2)c1 [Example 56, 1-(1-(3-((Dimethylphosphoryl)methyl)phenyl)-3-isopropyl-1H-pyrazol-5-yl)-3-(4-((2-((3-ethynyl-5-(2-morpholinoethoxy)phenyl)amino)pyrimidin-4-yl)oxy)naphthalen-1-yl)urea] | 0.0017 µM

— patent US9796742B2, “Kinase inhibitors” (Respivert Limited, priority 2012, dated 2017)
